The results in this text go back to ChEMBL document CHEMBL1136511, “Nonbenzamidine tetrazole derivatives as factor Xa inhibitors” (Bioorg Med Chem Lett, 2003).

In one data set the target is Prothrombin (Homo sapiens, UniProt P00734). Description: Inhibitory constant against thrombin using human purified enzymes.
The target of another data set is Serine protease 1 (Homo sapiens, UniProt P07477). The data set is described as follows: Inhibitory constant against trypsin using human purified enzymes.
Chain of Serine protease 1 (P07477 whole entry): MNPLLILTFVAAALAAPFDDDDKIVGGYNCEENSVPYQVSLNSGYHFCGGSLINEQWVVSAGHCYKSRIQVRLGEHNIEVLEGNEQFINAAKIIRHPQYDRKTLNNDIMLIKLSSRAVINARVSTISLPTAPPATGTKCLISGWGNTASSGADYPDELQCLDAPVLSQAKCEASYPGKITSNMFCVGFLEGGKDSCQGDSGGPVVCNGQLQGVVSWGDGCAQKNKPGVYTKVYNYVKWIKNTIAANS
In another data set the target is Coagulation factor X (Homo sapiens, UniProt P00742). Description: Inhibition of human purified factor Xa.
Chain of Coagulation factor X (P00742 41-179 limits assumed): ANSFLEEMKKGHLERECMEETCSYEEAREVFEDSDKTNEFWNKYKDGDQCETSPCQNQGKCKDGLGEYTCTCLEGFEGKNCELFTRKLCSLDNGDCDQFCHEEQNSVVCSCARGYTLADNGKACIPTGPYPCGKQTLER
Chain of Coagulation factor X (P00742 235-488 limits assumed): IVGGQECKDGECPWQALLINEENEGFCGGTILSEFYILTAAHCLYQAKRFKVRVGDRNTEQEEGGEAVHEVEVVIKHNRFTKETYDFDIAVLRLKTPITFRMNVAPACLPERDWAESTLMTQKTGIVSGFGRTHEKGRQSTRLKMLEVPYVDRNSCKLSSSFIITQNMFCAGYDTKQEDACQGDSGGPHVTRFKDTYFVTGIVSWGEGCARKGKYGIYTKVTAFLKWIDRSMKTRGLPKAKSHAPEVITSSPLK
Data set [1] is described as follows: Half-life period after intravenous administration of 1.0 mg/kg in dog was determined. Conditions: in vivo. More on the design: dose 1 mg/kg, route intravenous. Format: ADME, organism-based, Canis lupus familiaris.
For a further data set, the species on record is Oryctolagus cuniculus. Description: Antithrombotic efficacy in rabbit A-V shunt model was determined. Type of data set: functional.
The nature of data set [2]: Clearance after intravenous administration of 1.0 mg/kg in dog was determined. Type of data set: ADME, organism-based, Canis lupus familiaris. More on the design: dose 1 mg/kg, route intravenous. The conditions noted are these: in vivo.
A short description of data set [3]: Clearance after intravenous administration of 0.5 mg/kg in dog was determined. Type of data set: ADME, organism-based, Canis lupus familiaris. More on the design: dose 0.5 mg/kg, route intravenous. Conditions: in vivo.
Data set [4] can be described thus: Half-life period after intravenous administration of 0.5 mg/kg in dog was determined. Type of data set: ADME, organism-based, Canis lupus familiaris. More on the design: dose 0.5 mg/kg, route intravenous. The conditions noted are these: in vivo.
Data set [5] can be described thus: Clearance after peroral administration of 0.2 mg/kg in dog was determined. Type of data set: ADME, organism-based, Canis lupus familiaris. More on the design: dose 0.2 mg/kg, route oral. The conditions noted are these: in vivo, po.
Data set [6] is described as follows: Half-life period after peroral administration of 0.2 mg/kg in dog was determined. Type of data set: ADME, organism-based, Canis lupus familiaris. Details: dose 0.2 mg/kg, route oral. The conditions noted are these: in vivo, po.

For orientation: Ki means a measure of affinity in units of concentration, obtained from inhibition or displacement. Read a low Ki as tighter binding. For the compound `COc1ccc(-n2nnnc2C(=O)Nc2ccc(-c3ccccc3S(N)(=O)=O)cc2)cc1N`, the Ki at Prothrombin was 4000 nM; on Serine protease 1, above 1600 nM.

As for `NCc1cccc(-n2nnnc2C(=O)Nc2ccc(-c3ccccc3S(N)(=O)=O)cc2)c1`, the Ki on Prothrombin was above 21000 nM; on Serine protease 1, 69 nM; at Coagulation factor X, 13 nM.

In the case of `Nc1cc(-n2nnnc2C(=O)Nc2ccc(C(=O)N3CCCC3)cc2F)ccc1Cl`, the Ki on Prothrombin was 1200 nM; on Serine protease 1, above 1600 nM; on Coagulation factor X, 3 nM.

Regarding `Nc1noc2ccc(-n3nnnc3C(=O)Nc3ccc(C(=O)N4CCCC4)cc3F)cc12`, the Ki at Prothrombin was above 21000 nM; on Serine protease 1, above 1600 nM; at Coagulation factor X, 2.9 nM.

`Nc1cc(-n2nnnc2C(=O)Nc2ccc(-c3ccccc3S(N)(=O)=O)cc2)ccc1Cl`: the values for the Ki at Prothrombin, on Serine protease 1 and on Coagulation factor X were 1600 nM, above 1600 nM and 5.4 nM, respectively.

As for `Nc1cc(-n2nnnc2C(=O)Nc2ccc(-c3ccccc3S(N)(=O)=O)cn2)ccc1Cl`, the Ki at Prothrombin is 7900 nM; on Serine protease 1, above 1600 nM; at Coagulation factor X, 8 nM.

The compound `Nc1cc(-n2nnnc2C(=O)Nc2ccc(-c3ccccc3S(N)(=O)=O)cc2F)ccc1Cl` had a Ki on Coagulation factor X of 1.2 nM.

As usually defined, the half-life is the time needed for the level to fall by half in the phase considered. The low end stands for fast loss, the high end for slow loss. As a reminder, the clearance is a measure of how efficiently the substance is removed, as volume per time. Higher therefore signals efficient removal. On to `N=C(N)c1cccc(-n2nnnc2C(=O)Nc2ccc(-c3ccccc3S(N)(=O)=O)cc2)c1`, for which, at Serine protease 1, the Ki came to 6.4 nM. This compound also had a half-life in [1] of 0.65 h. The compound further registered an ID50 in the data set listed under Oryctolagus cuniculus of 0.13 µM/h/kg. The compound further showed a clearance in data set [2] of 10.3 mL/min/kg.

What is called CL/F is the apparent clearance, not corrected for the fraction that reaches the circulation. With `Nc1noc2ccc(-n3nnnc3C(=O)Nc3ccc(-c4ccccc4S(N)(=O)=O)cc3F)cc12`, the results for the inhibitory constant (Ki) at Prothrombin, on Serine protease 1 and at Coagulation factor X were 600 nM, above 5200 nM and 0.35 nM, respectively. Besides, the clearance in [3] is 5 mL/min/kg. Moreover, the half-life in data set [4] and in [6] was 3.1 h in each case. The apparent clearance CL/F in data set [5] was 5 mL/min/kg. The compound further showed an ID50 in the data set listed under Oryctolagus cuniculus of 5.8 µM/h/kg.

With `Nc1cc(-n2nnnc2C(=O)Nc2ccc(-c3ccccc3S(N)(=O)=O)cc2Cl)ccc1Cl`, the Ki at Prothrombin was 1600 nM; at Serine protease 1, above 1600 nM; on Coagulation factor X it was 3.3 nM.

As for `COc1ccc(-n2nnnc2C(=O)Nc2ccc(-c3ccccc3S(N)(=O)=O)cc2)cc1`, the results for the Ki at Prothrombin, on Serine protease 1 and at Coagulation factor X were 10000 nM, above 1600 nM and 8 nM, respectively.

Turning to `CS(=O)(=O)c1ccccc1-c1ccc(NC(=O)c2nnnn2-c2ccc3onc(N)c3c2)c(F)c1`, the Ki at Prothrombin was 400 nM; at Serine protease 1, above 1600 nM; at Coagulation factor X, 0.39 nM.

As for `Nc1noc2ccc(-n3nnnc3C(=O)Nc3ccc(-c4ccccc4S(N)(=O)=O)cc3)cc12`, the Ki at Prothrombin was 1500 nM; at Serine protease 1, above 1600 nM; at Coagulation factor X, 0.98 nM.
